According to PMC12128149, “Molecular Hybrids of Quinoline and Sulfonamide: Design, Synthesis and in Vitro Anticancer Studies” (ChemistryOpen, 2024):
Structures can show the parent of a compound that is named as a salt.

Key:
Format in all cases: cell-based
A549 = test: MTS cytotoxicity testing, A549 cells; details: Homo sapiens, ITK/BTK null cells
Description: (§1) Cell lines: The cells were sourced from either the DSMZ (Braunschweig, Germany) or the ATCC (Middlesex, UK). They were maintained in the recommended growth medium, supplemented with 10 % fetal calf serum, antibiotics (100 U/mL penicillin and […]), 2 mM glutamine, 1 mM NaHCO3, 1 mM sodium pyruvate, and 20 mM HEPES. The cells were incubated at 37 °C in a humidified atmosphere with 5 % CO2. Cell lines were routinely verified and checked for mycoplasma contamination every two weeks to once a month.
(§2) MTS cytotoxicity testing: An MTS assay method was developed in our laboratory for routine drug screening. This technique was used to assess the cytotoxicity of compounds, and the IC50 values were determined as previously described.[27]

K562 = test: MTS cytotoxicity testing, K562 cells; details: Homo sapiens, BTK high cells
Description: as §1, §2

U2OS = test: MTS cytotoxicity testing, U2OS cells; details: Homo sapiens, ITK/BTK null cells
Description: as §1, §2

Jurkat = test: MTS cytotoxicity testing, Jurkat cells; details: Homo sapiens, ITK high cells
Description: as §1, §2

HCT116 = test: MTS cytotoxicity testing, HCT116 cells; details: Homo sapiens, HCT-116; ITK/BTK null cells
Description: as §1, §2

CCRF‐CEM = test: MTS cytotoxicity testing, CCRF‐CEM cells; details: Homo sapiens, ITK high cells
Description: as §1, §2

RAMOS = test: MTS cytotoxicity testing, RAMOS cells; details: Homo sapiens, BTK high cells
Description: as §1, §2

[1] = MTS cytotoxicity testing, BJ non‐cancer cells; details: human
Description: as §1, §2

MOLT‐4 = test: MTS cytotoxicity testing, MOLT‐4 cells; details: Homo sapiens, ITK high cells
Description: as §1, §2

[2] = MTS cytotoxicity testing, MRC‐5 non‐cancer cells; details: human
Description: as §1, §2

Row | SMILES | IC50 (A549) [µM] | IC50 (K562) [µM] | IC50 (U2OS) [µM] | IC50 (Jurkat) [µM] | IC50 (HCT116) [µM] | IC50 (CCRF‐CEM) [µM] | IC50 (RAMOS) [µM] | IC50 [1] [µM] | IC50 (MOLT‐4) [µM] | IC50 [2] [µM]
1 | O=S(=O)(c1cc(-c2ccccc2)cc2cccnc12)N1CCCCC1 [9a, 6‐phenyl‐8‐(piperidin‐1‐ylsulfonyl)quinoline] | > 50 | > 50 | > 50 | > 50 | > 50 | > 50 | > 50 | > 50 | > 50 | > 50
2 | O=S(=O)(c1cc(-c2cccc(Cl)c2)cc2cccnc12)N1CCCCC1 [9b, 6‐(3‐chlorophenyl)‐8‐(piperidin‐1‐ylsulfonyl)quinoline] | > 50 | > 50 | > 50 | > 50 | > 50 | > 50 | > 50 | > 50 | > 50 | > 50
3 | O=S(=O)(c1cc(-c2ccccc2F)cc2cccnc12)N1CCCCC1 [9c, 6‐(2‐fluorophenyl)‐8‐(piperidin‐1‐ylsulfonyl)quinoline] | > 50 | > 50 | > 50 | 12.7 ± 5.45 | > 50 | > 50 | > 50 | > 50 | > 50 | > 50
4 | O=S(=O)(c1cc(-c2ccccc2Br)cc2cccnc12)N1CCCCC1 [9d, 6‐(2‐bromophenyl)‐8‐(piperidin‐1‐ylsulfonyl)quinoline] | > 50 | > 50 | > 50 | 13.5 ± 6.25 | > 50 | > 50 | 12.7 ± 3.71 | > 50 | > 50 | > 50
5 | O=S(=O)(c1cc(-c2ccc(O)cc2)cc2cccnc12)N1CCCCC1 [9e, 4‐(8‐(piperidin‐1‐ylsulfonyl)quinolin‐6‐yl)phenol] | > 50 | 5.47 ± 1.71 | > 50 | 7.43 ± 7.4 | > 50 | 28.6 ± 7.64 | 5.47 ± 1.71 | > 50 | > 50 | > 50
6 | O=S(=O)(c1cc(-c2ccc(O)c(F)c2)cc2cccnc12)N1CCCCC1 [9f, 2‐fluoro‐4‐(8‐(piperidin‐1‐ylsulfonyl)quinolin‐6‐yl)phenol] | > 50 | 9.69 ± 2.41 | > 50 | 13 ± 6.43 | > 50 | 17.1 ± 4.64 | 9.69 ± 2.41 | > 50 | > 50 | > 50
7 | O=S(=O)(c1cc(-c2cc(Cl)c(O)c(Cl)c2)cc2cccnc12)N1CCCCC1 [9g, 2,6‐dichloro‐4‐(8‐(piperidin‐1‐ylsulfonyl)quinolin‐6‐yl)phenol] | > 50 | > 50 | > 50 | > 50 | > 50 | > 50 | > 50 | > 50 | > 50 | > 50
8 | COc1cc(-c2cc(S(=O)(=O)N3CCCCC3)c3ncccc3c2)cc(Cl)c1O [9h, 2‐chloro‐6‐methoxy‐4‐(8‐(piperidin‐1‐ylsulfonyl)quinolin‐6‐yl)phenol] | > 50 | > 50 | > 50 | > 50 | > 50 | > 50 | > 50 | > 50 | > 50 | > 50
9 | COc1cccc(-c2cc(S(=O)(=O)N3CCCCC3)c3ncccc3c2)c1 [9i, 6‐(3‐methoxyphenyl)‐8‐(piperidin‐1‐ylsulfonyl)quinoline] | > 50 | > 50 | > 50 | 8.43 ± 6.43 | > 50 | 38.6 ± 4.64 | > 50 | > 50 | > 50 | > 50
10 | Nc1cccc(-c2cc(S(=O)(=O)N3CCCCC3)c3ncccc3c2)c1 [9j, 3‐(8‐(piperidin‐1‐ylsulfonyl)quinolin‐6‐yl)aniline hydrochloride] | > 50 | > 50 | > 50 | > 50 | > 50 | > 50 | > 50 | > 50 | 5.57 ± 7.56 | > 50
11 | N#Cc1cccc(-c2cc(S(=O)(=O)N3CCCCC3)c3ncccc3c2)c1 [9k, 3‐(8‐(piperidin‐1‐ylsulfonyl)quinolin‐6‐yl)benzonitrile] | > 50 | > 50 | > 50 | > 50 | > 50 | > 50 | > 50 | > 50 | > 50 | > 50
12 | O=S(=O)(c1cc(-c2cccc(OC(F)(F)F)c2)cc2cccnc12)N1CCCCC1 [9l, 8‐(piperidin‐1‐ylsulfonyl)‐6‐(3‐(trifluoromethoxy)phenyl)quinolone] | > 50 | > 50 | > 50 | 12.1 ± 6.43 | > 50 | > 50 | > 50 | > 50 | > 50 | > 50
13 | O=S(=O)(c1cc(-c2ccc(C(F)(F)F)cc2)cc2cccnc12)N1CCCCC1 [9m, 8‐(piperidin‐1‐ylsulfonyl)‐6‐(4‐(trifluoromethyl)phenyl)quinoline] | > 50 | > 50 | > 50 | 11.3 ± 1.13 | > 50 | > 50 | 8.11 ± 1.29 | > 50 | > 50 | > 50
14 | O=S(=O)(c1cc(-c2ccnc(F)c2)cc2cccnc12)N1CCCCC1 [9n, 6‐(2‐fluoropyridin‐4‐yl)‐8‐(piperidin‐1‐ylsulfonyl)quinoline] | > 50 | > 50 | > 50 | > 50 | > 50 | 19.4 ± 0.78 | 2.76 ± 0.79 | > 50 | > 50 | > 50
15 | COc1cc(-c2cc(S(=O)(=O)N3CCCCC3)c3ncccc3c2)ccn1 [9o, 6‐(2‐methoxypyridin‐4‐yl)‐8‐(piperidin‐1‐ylsulfonyl)quinoline] | > 50 | > 50 | > 50 | 11.4 ± 3.49 | > 50 | 15.3 ± 2.25 | 6.76 ± 0.79 | > 50 | > 50 | > 50
16 | O=S(=O)(c1cc(-c2ccc3nc[nH]c3c2)cc2cccnc12)N1CCCCC1 [9p, 6‐(1H‐benzo[d]imidazol‐6‐yl)‐8‐(piperidin‐1‐ylsulfonyl)quinoline hydrochloride] | > 50 | > 50 | > 50 | 21.2 ± 3.49 | > 50 | 13.2 ± 1.25 | > 50 | > 50 | > 50 | > 50
